Legend:
[1] = octanol/water
physchem = details: octanol/water

In the case of `N#Cc1cccc(O)c1`, the “Log k' w” value [1] is reported as 1.557 and the logP (physchem) is reported as 1.7.

For `COc1ccc(CO)cc1`, the “Log k' w” value [1] was 0.815 and the logP (physchem) was 1.1.

For `COc1ccc(N)cc1`, the “Log k' w” value [1] was 0.603 and the logP (physchem) was 0.95.

For `CC12CCC(C(=O)C1=O)C2(C)C` (centres undefined), the Log k' w [1] was 1.42 and the logP (physchem) was 1.52.

With `Oc1cccc(Cl)c1` the “Log k' w” value [1] was 2.391.

For `Oc1ccc(F)cc1`, the “Log k' w” value [1] was 1.575.

In the case of `Oc1ccc(I)cc1`, the “Log k' w” value [1] is reported as 2.795.

In the case of `O=[N+]([O-])c1ccc(Cl)cc1`, the “Log k' w” value [1] is reported as 2.165 and the logP (physchem) is reported as 2.3.

With `N#Cc1cccc([N+](=O)[O-])c1` the “Log k' w” value [1] was 1.014 and the logP (physchem) was 1.17.

In the case of `Oc1cccc(F)c1`, the “Log k' w” value [1] is reported as 1.749.

For `Nc1cccc2ccccc12`, the “Log k' w” value [1] was 2.203.

With `COc1ccc([N+](=O)[O-])cc1` the “Log k' w” value [1] was 1.857.

In the case of `Oc1cccc(C(F)(F)F)c1`, the “Log k' w” value [1] is reported as 2.847.

For `CCc1cccc(O)c1`, the “Log k' w” value [1] was 2.228 and the logP (physchem) was 2.4.

With `Cc1ccc(N)cc1` the “Log k' w” value [1] was 1.405.

In the case of `Nc1cccc(F)c1`, the “Log k' w” value [1] is reported as 1.225 and the logP (physchem) is reported as 1.3.

In the case of `CC(=O)Nc1ccc(Br)cc1`, the “Log k' w” value [1] is reported as 2.293 and the logP (physchem) is reported as 2.29.

For `COc1cccc(O)c1` [1-hydroxy-3-methoxybenzene], the “Log k' w” value [1] was 1.254.

With `Nc1ccc(Br)cc1` [4-BROMOANILINE] the “Log k' w” value [1] was 2.043.

With `Nc1ccc(Cl)cc1` [4-CHLOROANILINE] the “Log k' w” value [1] was 1.855 and the logP (physchem) was 1.83.

For `CC(=O)c1ccccc1` [ACETOPHENONE], the “Log k' w” value [1] was 1.359.

In the case of `COc1ccccc1` [ANISOLE], the “Log k' w” value [1] is reported as 2.006.

With `c1ccc(/N=N/c2ccccc2)cc1` [AZOBENZENE] the “Log k' w” value [1] was 3.961 and the logP (physchem) was 3.82.

For `N#Cc1ccccc1` [BENZONITRILE], the “Log k' w” value [1] was 1.279.

For `c1ccc2[nH]ccc2c1` [INDOLE], the “Log k' w” value [1] was 2.014 and the logP (physchem) was 2.14.

With `COc1ccc(O)cc1` [MEQUINOL] the “Log k' w” value [1] was 1.004.

With `O=[N+]([O-])c1ccccc1` [NITROBENZENE] the “Log k' w” value [1] was 1.633.

With `Oc1ccc(Cl)cc1` [PARACHLOROPHENOL] the “Log k' w” value [1] was 2.31.

For `Oc1ccccc1` [PHENOL], the “Log k' w” value [1] was 1.251.

In the case of `Oc1cccc(O)c1` [RESORCINOL], the “Log k' w” value [1] is reported as 0.544.

For `Cc1ccc(C(C)C)c(O)c1` [THYMOL], the “Log k' w” value [1] was 3.092.

With `Cc1ccc(O)cc1` [p-CRESOL] the “Log k' w” value [1] was 1.759.
